Measured values taken from PubChem BioAssay AID1963840 (Molecular Pharmacology Branch, DTP, NCI, 2024).

Test system: 695427-040-R-J1-PDC complex spheroid viability
Assay: Anticancer human tumor 695427-040-R-J1-PDC patient-derived colon adenocarcinoma cell line growth inhibition [POLQ]
Conditions: for IC50: curve of first compound; for viability, T/C: stronger effect = lower value
How it was run: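 Complex spheroid viability model combining PDC tumour cells with endothelial (HUVEC) and MSC stromal cells. Novobiocin, ART-558 or RP6685 were tested singly and in combination with standard and investigational anticancer drugs. Each was titrated in half-log steps from near clinical Cmax, or from 10 microM where Cmax was unknown.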

[1] = second compound 0.0316 µM, first compound 0.0316 µM
[2] = second compound 0.0316 µM, first compound 0.1 µM
[3] = second compound 0.0316 µM, first compound 0.316 µM
[4] = second compound 0.0316 µM, first compound 1 µM
[5] = second compound 0.0316 µM, first compound 3.16 µM
[6] = second compound 0.0316 µM, first compound 10 µM
[7] = second compound 0.1 µM, first compound 0.0316 µM
[8] = second compound 0.1 µM, first compound 0.1 µM
[9] = second compound 0.1 µM, first compound 0.316 µM
[10] = second compound 0.1 µM, first compound 1 µM
[11] = second compound 0.1 µM, first compound 3.16 µM
[12] = second compound 0.1 µM, first compound 10 µM
[13] = second compound 0.316 µM, first compound 0.0316 µM
[14] = second compound 0.316 µM, first compound 0.1 µM
[15] = second compound 0.316 µM, first compound 0.316 µM
[16] = second compound 0.316 µM, first compound 1 µM
[17] = second compound 0.316 µM, first compound 3.16 µM
[18] = second compound 0.316 µM, first compound 10 µM
[19] = second compound 1 µM, first compound 0.0316 µM
[20] = second compound 1 µM, first compound 0.1 µM
[21] = second compound 1 µM, first compound 0.316 µM
[22] = second compound 1 µM, first compound 1 µM
[23] = second compound 1 µM, first compound 3.16 µM
[24] = second compound 1 µM, first compound 10 µM
[25] = second compound 3.16 µM, first compound 0.0316 µM
[26] = second compound 3.16 µM, first compound 0.1 µM
[27] = second compound 3.16 µM, first compound 0.316 µM
[28] = second compound 3.16 µM, first compound 1 µM
[29] = second compound 3.16 µM, first compound 3.16 µM
[30] = second compound 3.16 µM, first compound 10 µM
[31] = second compound 10 µM, first compound 0.0316 µM
[32] = second compound 10 µM, first compound 0.1 µM
[33] = second compound 10 µM, first compound 0.316 µM
[34] = second compound 10 µM, first compound 1 µM
[35] = second compound 10 µM, first compound 3.16 µM
[36] = second compound 10 µM, first compound 10 µM
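Note: spheroids exposed to compounds for seven days.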
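Throughout, for viability, T/C: 100% = DMSO vehicle control viability.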

C=CC(=O)N1CCN(c2nc(=O)n(-c3c(C)ccnc3C(C)C)c3nc(-c4c(O)cccc4F)c(F)cc23)C(C)C1 (stereo not given) + COC1C(OC(N)=O)C(O)C(Oc2ccc3c(O)c(NC(=O)c4ccc(O)c(CC=C(C)C)c4)c(=O)oc3c2C)OC1(C)C
IC50 (second compound 0.0316 µM): > 10 µM | IC50 (second compound 0.1 µM): > 10 µM | IC50 (second compound 0.316 µM): > 10 µM | IC50 (second compound 1 µM): > 10 µM | IC50 (second compound 3.16 µM): > 10 µM | IC50 (second compound 10 µM): > 10 µM | viability, T/C [1]: 99.8% | viability, T/C [2]: 94.9% | viability, T/C [3]: 97.9% | viability, T/C [4]: 106% | viability, T/C [5]: 113% | viability, T/C [6]: 105% | viability, T/C [7]: 104% | viability, T/C [8]: 102% | viability, T/C [9]: 106% | viability, T/C [10]: 111% | viability, T/C [11]: 118% | viability, T/C [12]: 122% | viability, T/C [13]: 106% | viability, T/C [14]: 101% | viability, T/C [15]: 102% | viability, T/C [16]: 116% | viability, T/C [17]: 112% | viability, T/C [18]: 107% | viability, T/C [19]: 109% | viability, T/C [20]: 102% | viability, T/C [21]: 105% | viability, T/C [22]: 110% | viability, T/C [23]: 119% | viability, T/C [24]: 117% | viability, T/C [25]: 103% | viability, T/C [26]: 109% | viability, T/C [27]: 100% | viability, T/C [28]: 107% | viability, T/C [29]: 125% | viability, T/C [30]: 107% | viability, T/C [31]: 111% | viability, T/C [32]: 92.7% | viability, T/C [33]: 104% | viability, T/C [34]: 109% | viability, T/C [35]: 113% | viability, T/C [36]: 114%

CC1COCCN1c1cc(C2(S(C)(=N)=O)CC2)nc(-c2ccnc3[nH]ccc23)n1 (stereo not given) + COC1C(OC(N)=O)C(O)C(Oc2ccc3c(O)c(NC(=O)c4ccc(O)c(CC=C(C)C)c4)c(=O)oc3c2C)OC1(C)C
IC50 (second compound 0.0316 µM): > 10 µM | IC50 (second compound 0.1 µM): > 10 µM | IC50 (second compound 0.316 µM): > 10 µM | IC50 (second compound 1 µM): > 10 µM | IC50 (second compound 3.16 µM): > 10 µM | IC50 (second compound 10 µM): > 10 µM | viability, T/C [1]: 96.3% | viability, T/C [2]: 101% | viability, T/C [3]: 101% | viability, T/C [4]: 101% | viability, T/C [5]: 93.9% | viability, T/C [6]: 86% | viability, T/C [7]: 124% | viability, T/C [8]: 89.4% | viability, T/C [9]: 104% | viability, T/C [10]: 96.8% | viability, T/C [11]: 97.6% | viability, T/C [12]: 80.8% | viability, T/C [13]: 104% | viability, T/C [14]: 89.7% | viability, T/C [15]: 101% | viability, T/C [16]: 101% | viability, T/C [17]: 101% | viability, T/C [18]: 81.7% | viability, T/C [19]: 104% | viability, T/C [20]: 105% | viability, T/C [21]: 102% | viability, T/C [22]: 99.3% | viability, T/C [23]: 107% | viability, T/C [24]: 86.5% | viability, T/C [25]: 94.1% | viability, T/C [26]: 90.7% | viability, T/C [27]: 99.7% | viability, T/C [28]: 97.1% | viability, T/C [29]: 107% | viability, T/C [30]: 85.9% | viability, T/C [31]: 104% | viability, T/C [32]: 102% | viability, T/C [33]: 102% | viability, T/C [34]: 97.7% | viability, T/C [35]: 102% | viability, T/C [36]: 79%

CCc1cc2c(N3CCc4c(cc(Cn5ccnc5)cc4-c4cn(C)nc4C(F)(F)F)C3=O)ccnc2c(OC)n1 + COC1C(OC(N)=O)C(O)C(Oc2ccc3c(O)c(NC(=O)c4ccc(O)c(CC=C(C)C)c4)c(=O)oc3c2C)OC1(C)C
IC50 (second compound 0.0316 µM): > 10 µM | IC50 (second compound 0.1 µM): > 10 µM | IC50 (second compound 0.316 µM): > 10 µM | IC50 (second compound 1 µM): > 10 µM | IC50 (second compound 3.16 µM): > 10 µM | IC50 (second compound 10 µM): > 10 µM | viability, T/C [1]: 110% | viability, T/C [2]: 111% | viability, T/C [3]: 106% | viability, T/C [4]: 116% | viability, T/C [5]: 114% | viability, T/C [6]: 97.2% | viability, T/C [7]: 111% | viability, T/C [8]: 103% | viability, T/C [9]: 115% | viability, T/C [10]: 109% | viability, T/C [11]: 116% | viability, T/C [12]: 105% | viability, T/C [13]: 111% | viability, T/C [14]: 116% | viability, T/C [15]: 108% | viability, T/C [16]: 101% | viability, T/C [17]: 109% | viability, T/C [18]: 95.6% | viability, T/C [19]: 116% | viability, T/C [20]: 112% | viability, T/C [21]: 109% | viability, T/C [22]: 98.3% | viability, T/C [23]: 111% | viability, T/C [24]: 101% | viability, T/C [25]: 103% | viability, T/C [26]: 104% | viability, T/C [27]: 107% | viability, T/C [28]: 105% | viability, T/C [29]: 117% | viability, T/C [30]: 101% | viability, T/C [31]: 111% | viability, T/C [32]: 92.7% | viability, T/C [33]: 108% | viability, T/C [34]: 106% | viability, T/C [35]: 113% | viability, T/C [36]: 96.3%

COc1cc2cc(C(=O)CCC(=O)O)sc2cc1OC + COC1C(OC(N)=O)C(O)C(Oc2ccc3c(O)c(NC(=O)c4ccc(O)c(CC=C(C)C)c4)c(=O)oc3c2C)OC1(C)C
IC50 (second compound 0.0316 µM): > 10 µM | IC50 (second compound 0.1 µM): > 10 µM | IC50 (second compound 0.316 µM): > 10 µM | IC50 (second compound 1 µM): > 10 µM | IC50 (second compound 3.16 µM): > 10 µM | IC50 (second compound 10 µM): > 10 µM | viability, T/C [1]: 98.3% | viability, T/C [2]: 86.9% | viability, T/C [3]: 101% | viability, T/C [4]: 104% | viability, T/C [5]: 112% | viability, T/C [6]: 107% | viability, T/C [7]: 117% | viability, T/C [8]: 103% | viability, T/C [9]: 106% | viability, T/C [10]: 99.2% | viability, T/C [11]: 109% | viability, T/C [12]: 103% | viability, T/C [13]: 108% | viability, T/C [14]: 105% | viability, T/C [15]: 99.8% | viability, T/C [16]: 107% | viability, T/C [17]: 101% | viability, T/C [18]: 99.3% | viability, T/C [19]: 104% | viability, T/C [20]: 109% | viability, T/C [21]: 100% | viability, T/C [22]: 106% | viability, T/C [23]: 101% | viability, T/C [24]: 103% | viability, T/C [25]: 102% | viability, T/C [26]: 94.2% | viability, T/C [27]: 97.4% | viability, T/C [28]: 106% | viability, T/C [29]: 103% | viability, T/C [30]: 93.8% | viability, T/C [31]: 102% | viability, T/C [32]: 102% | viability, T/C [33]: 114% | viability, T/C [34]: 120% | viability, T/C [35]: 104% | viability, T/C [36]: 109%

COc1ccc([C@@H](O)c2cc(-c3ncnc4cc(N5CCOCC5)ccc34)c(F)cc2Cl)nn1 + COC1C(OC(N)=O)C(O)C(Oc2ccc3c(O)c(NC(=O)c4ccc(O)c(CC=C(C)C)c4)c(=O)oc3c2C)OC1(C)C
IC50 (second compound 0.0316 µM): > 10 µM | IC50 (second compound 0.1 µM): > 10 µM | IC50 (second compound 0.316 µM): > 10 µM | IC50 (second compound 1 µM): > 10 µM | IC50 (second compound 3.16 µM): > 10 µM | IC50 (second compound 10 µM): > 10 µM | viability, T/C [1]: 104% | viability, T/C [2]: 99.5% | viability, T/C [3]: 105% | viability, T/C [4]: 92.9% | viability, T/C [5]: 75.5% | viability, T/C [6]: 56% | viability, T/C [7]: 114% | viability, T/C [8]: 104% | viability, T/C [9]: 104% | viability, T/C [10]: 94.2% | viability, T/C [11]: 76.7% | viability, T/C [12]: 57.9% | viability, T/C [13]: 127% | viability, T/C [14]: 99.1% | viability, T/C [15]: 99% | viability, T/C [16]: 89.9% | viability, T/C [17]: 76.8% | viability, T/C [18]: 51.5% | viability, T/C [19]: 94.9% | viability, T/C [20]: 92.3% | viability, T/C [21]: 98.3% | viability, T/C [22]: 91.5% | viability, T/C [23]: 82% | viability, T/C [24]: 54.5% | viability, T/C [25]: 105% | viability, T/C [26]: 101% | viability, T/C [27]: 97% | viability, T/C [28]: 98.4% | viability, T/C [29]: 83.5% | viability, T/C [30]: 57.6% | viability, T/C [31]: 101% | viability, T/C [32]: 89.6% | viability, T/C [33]: 94.4% | viability, T/C [34]: 101% | viability, T/C [35]: 76.8% | viability, T/C [36]: 51.7%
